These are literature values, as cited in article PMC6882435, “Preparation and study of two kinds of ophthalmic nano-preparations of everolimus” (Drug Delivery, 2019).

On the set-up of series [1]: method as in Baspinar et al., 2008; Tedesco-Silva et al., 2019. The note with it: patients that take the drug (systemic, oral); ref Baspinar et al., 2008; Tedesco-Silva et al., 2019.
Details of series [2]: method as in Iwase & Maitani, 2012. The note with it: raw material at room temperature; ref Iwase & Maitani, 2012.

Consider `CO[C@H]1C[C@@H]2CC[C@@H](C)[C@@](O)(O2)C(=O)C(=O)N2CCCC[C@H]2C(=O)O[C@H]([C@H](C)C[C@@H]2CC[C@@H](OCCO)[C@H](OC)C2)CC(=O)[C@H](C)/C=C(\C)[C@@H](O)[C@@H](OC)C(=O)[C@H](C)C[C@H](C)/C=C/C=C/C=C/1C` [Everolimus, 4 O-O-(2-hydroxyethyl)-rapamycin], for which the “patients with side effects such as thrombocytopenia and dyslipidemia” value in series [1] is listed as “about 30%”. For the same compound, in series [2], the solubility entry was “about 9.6 μg·mL^−1”.
